Test [1] deals with T1, PD-seeded fibrils (Homo sapiens (Human), UniProt P37840). Description: Heterologous competition binding assay with [18F]TZ61-44 as radioligand. The note with it: radioligand [18F]TZ61-44, 25 nM PD-seeded fibrils; for Ki: Cheng-Prusoff from EC50. As to the method: (§1) The equilibrium inhibitor constant (Ki) of a series of compounds was measured using heterologous radioactive binding assays with [^18F]TZ61-44, […], or [^125I]TZ61-84 as the screening radioligands. EC50 values for each compound were determined by fitting the data to the equation Y=Bottom+(Top−Bottom)/(1+(X−Log EC50)^−Hillcoefficient) using nonlinear regression by Kaleidagraph software, where Top and Bottom are the Y values for the top and bottom plateaus of the binding curve. The Ki values were derived from the EC50 values using the Cheng-Prusoff equation: Ki=EC50/(1+[radioligand]/Kd). FIGS. 5A-5E show the inhibition curves for TG-1-90B, TZ55-101, TZ61-84, TZ55-107, and TZ55-81 using [^18F]TZ61-44 as the radioligand. FIG. 11B-C show the inhibition curves for two separate experiments on PD fibrils for TZ55-101 using […] as the radioligand. FIGS. 12A-12F show the inhibition curves for TZ66-3, TZ64-015, TZ64-016, TZ64-018, TZ64-019, and TZ64-020 using [^18F]TZ61-44 as the radioligand. FIGS. 13A-13D show the inhibition curves for TZ66-9, TZ66-8, and TZ55-107 using [^18F]TZ61-44 as the radioligand.

In test [2] the target is T2, α-synuclein fibrils (Homo sapiens (Human), UniProt P37840). Kind of test: Specific binding of TZ61-84: displacement of [18F]TZ-61-84 from fibrils. To be noted: [18F]TZ-61-84 at 0.0195 nM. As to the method:
(§2) TZ61-84 was screened for binding to Banner PD tissue, AD tissue, α-synuclein fibrils, Aβ fibrils and in controls by measuring how well it displaced [^18F]TZ-61-84 (at 0.0195 nM) from each substrate.

For a further test, the system named is Banner PD tissue. Kind of test: Specific binding of TZ61-84: displacement of [18F]TZ-61-84 from tissue. To be noted: [18F]TZ-61-84 at 0.0195 nM. As to the method: as §2
A general note: In a radioligand displacement assay an active substance lowers the binding of a labelled ligand.

The target in a further test is Banner seeded fibrils (Homo sapiens (Human), UniProt P37840). Description: Saturation binding of [125I]TZ61-84 to Banner seeded fibrils. The procedure:
The binding efficacy (Kd) of TZ-61-84 was determined using a modified protocol. Specifically, saturation plots of radiolabeled [^125I]TZ61-84 were obtained measuring total and nonspecific binding of TZ61-84 to 100 nM Banner seeded fibrils. The results are depicted in FIG. 15B-15D and that TZ61-84 has a high binding affinity to α-synuclein (Kd<1 nM).

The test system of test [3] is AD Tissue 6843. Description: Heterologous competition binding assay with [11C]Tg-1-90-B, AD tissue. To be noted: radioligand [11C]Tg-1-90-B. The procedure:
FIG. 11D is a plot of a heterologous competition binding assay of TZ55-101 in the presence of the radioligand [^11C]Tg-1-90-B and AD tissue 6843.
as §1
The binding to AD fibrils was also assessed for TZ55-101 in FIG. 11D.

In a further test the target is PD fibrils (Homo sapiens (Human), UniProt P37840). Kind of test: Heterologous competition binding assay with [11C]Tg-1-90B as radioligand. To be noted: radioligand Tg-1-90-B. The procedure:
as §1

Test [4] has as its target T1, PD-seeded fibrils. Description: Radioligand competition, PD-seeded fibrils (Tg-1-90B as radioligand). The test is classed as binding. To be noted: PD-seeded fibrils (Tg-1-90B radioligand); hot concentration 2 nM. As to the method:
(§3) A series of compounds were synthesized and the Ki (nM) in the presence of Fibrils 4174, PD-seeded fibrils (using Tg-1-90B as the radioligand), AD Tissue 6843 and/or AD Tissue 2846 was determined. In each experiment, the “hot” concentration was 2 nM.

Another test relates to Banner AD tissue. Kind of test: Homologous competition radioligand binding assay, AD tissue. On the set-up: species or system human. To be noted: [18F]28. The procedure: (§4) The equilibrium dissociation constant (Kd) for a series of compounds was determined using direct radioactive competitive binding assays (homologous or heterologous) with either recombinant α-synuclein fibrils or brain tissue homogenates from AD cases.
Brain tissue samples were selected from an autopsy case series of patients evaluated for parkinsonism by movement disorders specialists at the Movement Disorders Center of Washington University School of Medicine in St. Louis. […] Dementia was determined by a movement disorders specialist based on clinical assessment of cognitive dysfunction sufficiently severe to impair activities of daily living, with further evaluation of cognitive impairment using the AD8 and Mini-Mental Status Exam (MMSE) [Galvin, J. E., et al., “The AD8: a brief informant interview to detect dementia,” 2005, Neurology 65:559-564; Folstein, M. F., et al., ““Mini-mental state”. […] LB stage was assessed at autopsy using a PD staging scale (range: 0, 1-6) [Braak, H., et al., “Stages in the development of Parkinson's disease-related pathology,” 2004, Cell Tissue Res., 318:121-134]. PD cases were selected based on a clinical diagnosis of PD plus dementia, Braak LB stage 5-6 pathology, and the absence of significant Aβ or tau pathology determined by immunohistochemistry. […]

The target in test [5] is T2, α-synuclein fibrils. Kind of test: Direct radioligand binding assay of [18F]28, α-synuclein fibrils. To be noted: α-synuclein fibrils. As to the method:
as §4
(§5) Recombinant protein was produced in E. coli using protocols based on previously described methods for α-synuclein [Giasson, B. I., et al., “Mutant and wild type human alpha-synucleins assemble into elongated filaments with distinct morphologies in vitro,” 1999, J Biol. Chem., 274:7619-7622; Huang, C., et al., “A new method for purification of recombinant human alpha-synuclein in Escherichia coli,” 2005, Protein Expr Purif, 42:173-177; Yu, L., et al, “Synthesis and in vitro evaluation of á-synuclein ligands,” 2012, Bioorg. […]
(§6) Purified recombinant α-synuclein monomer (2 mg/ml) was incubated in 20 mM Tris-HCl, pH 8.0, 100 mM NaCl for 72 h at 37 C with shaking at 1000 rpm in an Eppendorf Thermomixer. […] The concentration of α-synuclein monomer in the supernatant was determined in a BCA protein assay according to the manufacturer's instructions, using a bovine serum albumin (BSA) standard curve. The measured decrease in α-synuclein monomer concentration was used to determine the concentration of fibrils in the 72 h fibril reaction mixture. […]

The test system of test [6] is α-synuclein fibrils. The test is described as above. Set-up: species or system human. The note with it: comparison of Kd on fibrils and AD tissue. The procedure:
as §4, §5, §6

Test [7] addresses T2, α-synuclein fibrils. Description: Thioflavin T fluorescence competitive assay. The note with it: read-out: Thioflavin T assay Ki; competition with ThT on recombinant α-synuclein fibrils; at least three experiments.
Method: α-Synuclein recombinant protein was produced in E. coli. BL21(DE3)RIL E. coli were transformed with a pRK172 bacterial expression plasmid containing the human α-synuclein coding sequence. […] Overnight cultures were pelleted by centrifugation at 3,900×g for 10 min at 25° C. Bacterial pellets were resuspended in 20 mL osmotic shock buffer (30 mM Tris-HCl, 2 mM EDTA, 40% sucrose, pH 7.2) by gentle vortexing and incubated at room temperature for 10 minutes. The cell suspension was then centrifuged at 8,000×g for 10 min at 25° C. and the pellet was resuspended in 22.5 mL cold H2O before adding 9.4 μL 2 M MgCl2 to each tube. The suspension was incubated on ice for 3 min prior to centrifugation at 20,000×g for 15 min at 4° C. The supernatant was transferred to a fresh tube, streptomyocin was added to a final concentration of 10 mg/mL, and then centrifuged at 20,000×g for 15 min at 4° C. The supernatant from this step was collected and dithiothreitol (DTT) and Tris-HCl were added to final concentrations of 1 mM and 20 mM respectively, before boiling for 10 min to precipitate heat-sensitive proteins, which were pelleted at 20,000×g for 15 minutes at 4° C. The supernatant was collected and filtered through a 0.45 μm surfactant free cellulose acetate filter (Corning, Corning, NY) before loading onto a 1 mL DEAE Sepharose column equilibrated in 20 mM Tris-HCl pH 8, 1 mM EDTA, and 1 mM DTT. The DEAE column was washed with 20 mM Tris-HCl pH 8, 1 mM EDTA, 1 mM DTT before eluting α-synuclein protein in 20 mM Tris-HCl, pH 8, buffer with 1 mM EDTA, 1 mM DTT and 0.3 M NaCl. The purified α-synuclein protein was dialyzed overnight in 10 mM Tris-HCl, pH 7.6, 50 mM NaCl, and 1 mM DTT.
The purified, recombinant α-synuclein monomer (2 mg/mL) was incubated in Tris-HCl (20 mM) and NaCl (100 mM) while shaking at 1000 rpm in an Eppendorf Thermomixer in a 37° C. temperature-controlled room for 72 hours. To determine the concentration of fibrils, the reaction mixture (100 μL) was centrifuged at 18,000×g for 10 minutes to separate fibrils from monomer. The α-synuclein monomer and other soluble proteins in the supernatant were removed, and the fibril pellet was resuspended in 100 μL solution of Tris-HCl (20 mM) and NaCl (100 mM). This fibril suspension was used in a bicinchoninic acid (BCA) protein assay along with a bovine serum albumin (BSA) standard curve to determine the concentration of fibrils in the 72 hour fibril reaction mixture.
To prepare the fibrils for performing binding assays, the fibril reaction mixture prepared above was centrifuged at 18,000×g for 10 minutes. The supernatant was discarded and the fibril pellet was resuspended in Tris-HCl buffer (30 nM, pH=7.4) to achieve the desired concentration (3 or 6 μM) of fibrils for use in the assay.
The ThT solution (6 μM) in Tris-HCl buffer (30 nM, pH=7.4, 40 μL) was added to each of three cells in a 96 cell plate for fluorescence detection containing α-synuclein fibrils suspension (3.0 μM) in the Tris-HCl buffer (30 nM, pH=7.4, 40 μL). The mixture was incubated at room temperature for 1 hour on the shaking plate. The reaction plate was scanned by the excitation wavelength range from 430 to 465 nm. The maximum excitation wavelength (λex) was determined according to the fluorescent intensity-excitation wavelength curve.
Another test addresses Fibrils 4174 (Homo sapiens, UniProt P37840). Description: 3H radioligand competition, Fibrils 4174. Type of test: binding. To be noted: hot concentration 2 nM. As to the method:
as §3

The target in test [8] is AD Tissue 6843. Kind of test: 3H radioligand competition, AD Tissue 6843. The test is classed as binding. To be noted: hot concentration 2 nM. As to the method:
as §3

A further test concerns the target AD Tissue 2846. Kind of test: 3H radioligand competition, AD Tissue 2846. The test is classed as binding. The note with it: hot concentration 2 nM. The procedure: as §3

Structures are written as SMILES. “And” between values parts separate entries of the source, which are not always exact repeats. Identical values can stand only once.

As usually defined, the EC50 is the concentration that produces a half-maximal response. Higher therefore signals a need for much substance. What is called Ki is a dissociation constant, usually derived from enzyme kinetics or from competition with a known ligand. The term Kd denotes the concentration at which binding is half-saturated. Turning to `COc1ccc(Nc2ccc3cc(OC/C=C/I)ccc3n2)cn1` [TZ61-84], at PD-seeded fibrils [1], a half-maximal effect (EC50) was put at 17 nM and the Ki stood at 16 nM. In addition, the “affinity for α-synuclein fibrils over Aβ fibrils” value on α-synuclein fibrils [2] was “slightly more affinity”. Further, the “affinity for PD Banner tissue compared to AD Banner tissue” value in the test with Banner PD tissue is recorded as “high affinity”. In addition, the Kd at Banner seeded fibrils (100 nM Banner seeded fibrils, saturation binding) is 0.34 nM and 0.5 nM. For the same molecule, on Banner seeded fibrils (100 nM fibrils, saturation plot, unit inferred), the dissociation constant Kd is 0.338 nM and 0.496 nM. For the same molecule, the Bmax at Banner seeded fibrils (100 nM fibrils, saturation plot, unit not given, listed as [^125I]TZ61-84) was 259.7 and 310.5.
`COc1ccc(-c2ccc3cc(-c4cnc5ccccc5c4)ccc3n2)cn1` [TZ55-101]: the “affinity for AD fibrils” value with AD Tissue 6843 [3] is “did not show significant affinity”. For the same molecule, the EC50 is 21 nM and 11 nM on PD fibrils; 15 nM at PD-seeded fibrils [1]. Besides, the Ki is 20 nM and 10 nM at PD fibrils (Cheng-Prusoff from EC50); 14 nM on PD-seeded fibrils [1].
In turn, `COc1ccc2nc(-c3noc(-c4ccc(-n5ccnc5)cc4)n3)ccc2c1` [TZ46-155] gave an inhibitory constant (Ki) on PD-seeded fibrils [4] of 230 nM.
Take `COc1cc(-c2nc(-c3ccc4cc(OCCF)ccc4n3)no2)ccn1` [Compound 28, 3-(6-(2-Fluoroethoxy)quinolin-2-yl)-5-(2-methoxypyridin-4-yl)-1,2,4-oxadiazole]: in the test with Banner AD tissue, the Bmax came to 1082 pmol/mg and the Kd was 25 nM. The Kd on α-synuclein fibrils [5] was found to be 18 nM. In the test on α-synuclein fibrils [6], the “selectivity for α-synuclein fibrils over AD tissues” value was “lacks selectivity”. Moreover, on α-synuclein fibrils [7], the inhibitory constant (Ki) worked out at 17 nM.
With `COc1ccc2nc(-c3noc(-c4ccc(-n5cccn5)cc4)n3)ccc2c1` [TZ46-148], the Ki at Fibrils 4174 stood at 82 nM; on AD Tissue 6843 [8], 13 nM; at PD-seeded fibrils [4], 17 nM; at AD Tissue 2846, 7 nM.
On the same counts, the results for `COc1ccc2nc(-c3noc(-c4ccc5ncccc5c4)n3)ccc2c1` [TZ46-147] are 96 nM, 21 nM, 39 nM and 30 nM.
